The text below walks through data of US20040157866A1, “Amide compounds” (priority 2001, published 2004).

One test concerns Apo B secretion. The test can be described thus: Test 1: Measurement of Inhibition of Apo B Secretion (HepG2 cells, ELISA). The following applies: 1 × 10^−8 M test compound, 15-hour incubation, 0.1% DMSO treated cells as controls; for inhibition at 0.01 µM: Homo sapiens. In kind it is cell-based. As to the method:
Test 1: Measurement of Inhibition of Apo B Secretion
HepG2 cells were seeded in Eagles medium containing 10% fetal calf serum (FCS) at a density of 30000 cells/well in 96-well plates and allowed to grow for 3 days before treatment. At this time, the medium was replaced with fresh medium containing 0.1% dimethyl sulfoxide (DMSO) and the indicated concentrations of a test compound. After 15-hour incubation, the amount of Apo B and Apo AI accumulated in the media was determined by ELISA.
The assay was carried out at room temperature. A flat bottomed micro ELISA plate (manufactured by Nunc) was coated with an anti Apo B monoclonal antibody solution ([…] in 0.05% carbonate buffer, pH 9.6) by adding the antibody solution at a volume of 100 μl per well. After 1-hour incubation on a plate mixer, the unbound materials were removed by washing the well 3 times with a washing buffer (phosphate buffered saline, pH 7.2 containing 0.1% bovine serum albumin and 0.05% Tween-20). Then 20 μl of a solution of the test compound (dissolved in the culture medium) and 100 μl of a solution of peroxidase coupled anti Apo B antibody were added. After 1-hour incubation on a plate mixer, washing was performed 3 times to remove the unbound materials. A freshly prepared substrate solution (2.5 mg/ml ortho-phenylene diamine and 0.018% H2O2 in 0.11M Na2HPO4-0.044 M sodium citrate buffer, pH 5.4) at a volume of 200 μl was then added to each well. After 20-minute incubation, the enzyme reaction was terminated by adding 50 μl of 0.5 M sulfuric acid. Absorbance of each well was determined at 490 nm using a microplate reader. Apo B concentration was calculated from a standard curve generated from purified Apo B standard that was run in parallel in the same plate. Inhibition of Apo B secretion by the test compound is calculated taking 0.1% DMSO treated cells as controls.
Measurement of Apo AI was performed similar to that of Apo B, except for diluting the sample 11-fold with a dilution buffer (phosphate buffered saline, pH 7.2 containing 0.5% bovine serum albumin and 0.05% Tween-20).
Apo B secretion inhibitors are identified as compounds that decrease Apo B secretion without affecting the secretion of Apo AI.
In general terms: ELISA stands for enzyme-linked immunosorbent assay.

In a further test the test system is ddY-mice. Put plainly: Test 2: Lipids Lowering Effect on ddY-Mice. The class given is in vivo. The following applies: male ddY-mice, oral dose 10 mg/kg, relative to baseline; for Cholesterol (% of 0 hr) 2 hr: plasma total-cholesterol 2 hours after administration; for Triglyceride (% of 0 hr) 2 hr: plasma triglyceride 2 hours after administration. The text has this:
Test 2: Lipids Lowering Effect on ddY-Mice
Male ddY-mice were housed in temperature- and humidity-controlled rooms and fed with laboratory chow. The animals were randomized according to their body weight and deprived of food just before the experiment. A blood sample (baseline blood sample) was collected from the retro orbital venous plexus before administration of the test drug, and then the animals were orally dosed with the test drug in a vehicle (aqueous solution of 0.5% methylcellulose). Blood samples were drawn at 2 hours after drug administration for the measurement of cholesterol and triglyceride.
Plasma total-cholesterol and plasma triglyceride were determined by conventional enzyme methods using commercially available kits. The cholesterol CII-Test Wako (Wako Pure Chemical Industries, Ltd.) was used for the measurement of cholesterol, and the triglyceride E-test Wako (Wako Pure Chemical Industries, Ltd.) was used for the measurement of triglyceride.
Lipids lowering effects were shown in percent relative to the baseline level (level at 0 hr).

Structures are written as SMILES.

By inhibition is commonly meant the change of the read-out against control, counted positive when it falls. Read a high inhibition as a response far below the control. The compound `Nc1nc(CC(=O)N2CCc3cc(NC(=O)c4ccccc4-c4ccc(C(F)(F)F)cc4)ccc32)cs1` [Example 58, N-{1-[(2-amino-1,3-thiazol-4-yl)acetyl]-2,3-dihydro-1H-indol-5-yl}-4′-(trifluoromethyl)-1,1′-biphenyl-2-carboxamide] registered an inhibition at 0.01 µM in the test with Apo B secretion of 90.7%.
In the case of `Cc1ccc(-c2cc(C)ccc2C(=O)Nc2ccc3c(c2)CCN3C(=O)Cc2ccccn2)cc1` [Example 11, 4′,5-Dimethyl-N-[1-(2-pyridinylacetyl)-2,3-dihydro-1H-indol-5-yl]-1,1′-biphenyl-2-carboxamide], the “Inhibition of Apo B secretion at 1 × 10^−8 M (%)” value in the test on Apo B secretion is recorded as 97.2%.
Regarding `O=C(Nc1ccc2c(c1)CCN2C(=O)Cc1ccccn1)c1ccccc1-c1ccc(C(F)(F)F)cc1` [Example 4, N-[1-(2-Pyridinylacetyl)-2,3-dihydro-1H-indol-5-yl]-4′-(trifluoromethyl)-1,1′-biphenyl-2-carboxamide], in the test on ddY-mice, the “Cholesterol (% of 0 hr) 2 hr” value is given as 75 % of 0 hr and the “Triglyceride (% of 0 hr) 2 hr” value is reported as 13 % of 0 hr. Moreover, in the test on Apo B secretion, the “Inhibition of Apo B secretion at 1 × 10^−8 M (%)” value is reported as 92.0%.
With `O=C(Nc1ccc2c(c1)CCN2CCc1ccccn1)c1ccccc1-c1ccc(C(F)(F)F)cc1` [Example 1, N-{1-[2-(2-Pyridinyl)ethyl]-2,3-dihydro-1H-indol-5-yl}-4′-(trifluoromethyl)-1,1′-biphenyl-2-carboxamide], in the test on ddY-mice, the “Cholesterol (% of 0 hr) 2 hr” value is on record as 90 % of 0 hr and the “Triglyceride (% of 0 hr) 2 hr” value is recorded as 13 % of 0 hr. Moreover, at 0.01 µM the inhibition with Apo B secretion was 92.2%.
